# Source: patent publication US6833372B2, “Non-peptide GnRH agents, Pharmaceutical compositions, and methods for their use” (Pfizer, Inc., priority 2002, dated 2004)
# Like-named read-outs stand apart in the source and are kept apart here.
# Tests used:
# [1] = Rat plasma % remain; type: in vitro ADME
# [2] = In vitro metabolism: disappearance of parent compound in dog liver microsomes; type: in vitro ADME; conditions: 5 uM compound, 30 minutes 37° C.
# Description: (§1) Human, rat, dog, and monkey liver microsomes were isolated by differential centrifugation. Specimens of human liver were obtained from the International Institute for the Advancement of Medicine (Scranton, Pa.). The disappearance of the parent compound was studied in a mixture containing 5 uM compound, 0.5 mg/ml microsomal protein, and 2 mM NADPH in 50 mM K phosphate buffer, pH 7.4. Samples were incubated for 30 minutes at 37° C. The reaction was terminated by the addition of acetonitrile and compounds analyzed by LC-MS as described above.
# [3] = target: T1, human GnRH receptors (Homo sapiens, UniProt P30968); assay: Radioligand binding: inhibition of 125I-GnRH-A binding to human GnRH receptor membranes; conditions: HEK 293 cell membranes
# T1 construct: expressed in transfected cells; host or cells: HEK 293 cells, stably transfected; membranes
# T1 sequence (P30968 1-328): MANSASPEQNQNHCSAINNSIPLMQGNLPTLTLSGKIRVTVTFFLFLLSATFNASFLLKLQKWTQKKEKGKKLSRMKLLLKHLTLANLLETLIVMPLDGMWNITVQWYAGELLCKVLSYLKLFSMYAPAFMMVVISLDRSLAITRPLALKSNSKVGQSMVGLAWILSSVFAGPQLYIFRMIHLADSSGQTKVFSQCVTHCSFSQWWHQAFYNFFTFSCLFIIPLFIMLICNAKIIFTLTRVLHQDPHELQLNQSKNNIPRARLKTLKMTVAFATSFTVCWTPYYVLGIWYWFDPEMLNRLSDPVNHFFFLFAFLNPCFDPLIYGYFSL
# How it was run: (§2)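 Membranes from rat pituitaries, or HEK 293 cells stably expressing mouse or human receptor, incubated 1 hour at room temperature with ~0.04-0.06 nM radioligand (HEPES pH 7.4, EDTA, MgCl2, BSA) and competitor at 0.1-10,000 nM. Bound ligand collected by GF/C filtration and counted; Ki derived from IC50 by Cheng-Prusoff.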
# [4] = In vitro metabolism: disappearance of parent compound in monkey liver microsomes; type: in vitro ADME; conditions: 5 uM compound, 30 minutes 37° C.
# Description: as §1
# [5] = Pharmacokinetics in rats (jugular vein cannula, plasma LC-MS); type: in vivo, Rat; conditions: for Cmax / half-life / Tmax: rat, plasma
# Description: Rats (male or female, 200-225 g) were prepared with indwelling jugular vein cannula as described by Harms et al., Applied Physiol. 36:391-398 (1974), and allowed to recover overnight with free access to the standard vivarium chow and water. […] […] The blood samples were withdrawn at specific times, plasma was immediately separated and compound extracted with ethyl acetate. The samples were analyzed by LC-MS using 30-90% gradient of ACN in 50 mM ammonium acetate.
# The pharmacokinetic parameters were calculated using WinNonlin software (Scientific Consulting Inc.). The bioavailability was calculated as AUCp.o./AUCi.v., where AUCp.o. and AUC i.v. are areas under the plasma concentration-time curve after oral and i.v. administration, respectively.
# [6] = target: H S A (Homo sapiens, UniProt P02768); assay: H S A column α; type: in vitro ADME
# Chain of H S A (P02768 25-609): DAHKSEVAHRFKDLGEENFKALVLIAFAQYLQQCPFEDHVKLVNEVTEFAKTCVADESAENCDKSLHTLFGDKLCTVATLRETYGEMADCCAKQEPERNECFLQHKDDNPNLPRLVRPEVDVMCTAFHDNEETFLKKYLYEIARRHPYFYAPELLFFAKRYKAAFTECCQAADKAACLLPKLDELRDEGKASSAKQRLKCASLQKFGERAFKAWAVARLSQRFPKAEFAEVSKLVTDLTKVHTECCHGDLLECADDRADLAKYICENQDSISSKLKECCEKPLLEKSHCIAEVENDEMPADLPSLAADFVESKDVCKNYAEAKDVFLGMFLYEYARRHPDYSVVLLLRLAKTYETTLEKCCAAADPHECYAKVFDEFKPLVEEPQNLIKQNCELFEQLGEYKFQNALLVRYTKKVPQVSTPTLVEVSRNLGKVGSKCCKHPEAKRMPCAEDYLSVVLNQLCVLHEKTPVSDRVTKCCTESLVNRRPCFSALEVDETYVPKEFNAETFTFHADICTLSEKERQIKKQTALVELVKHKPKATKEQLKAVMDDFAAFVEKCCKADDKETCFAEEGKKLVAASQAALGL
# [7] = In vitro metabolism: disappearance of parent compound in rat liver microsomes (male, female); type: in vitro ADME; conditions: 5 uM compound, 30 minutes 37° C.; for Fem. Rat (FR) % rem. 30′: female rat liver microsomes; for Male Rat (MR) % rem. 30′: male rat liver microsomes
# Description: as §1
# [8] = target: T2, rat GnRH receptor (Rattus norvegicus, UniProt P30969); assay: Radioligand binding: inhibition of 125I-GnRH-A binding to rat GnRH receptor (rat pituitary membranes); conditions: read-out: Ki (nM), Inhibition Binding of 125I-GnRH-A to GnRH Receptors
# T2 construct: or rat pituitaries (Pel Freez Biologicals, Rogers, Ark.) were homogenized; tissue Pel Freez Biologicals; host or cells: rat pituitaries (membrane preparation)
# T2 sequence (P30969 1-327): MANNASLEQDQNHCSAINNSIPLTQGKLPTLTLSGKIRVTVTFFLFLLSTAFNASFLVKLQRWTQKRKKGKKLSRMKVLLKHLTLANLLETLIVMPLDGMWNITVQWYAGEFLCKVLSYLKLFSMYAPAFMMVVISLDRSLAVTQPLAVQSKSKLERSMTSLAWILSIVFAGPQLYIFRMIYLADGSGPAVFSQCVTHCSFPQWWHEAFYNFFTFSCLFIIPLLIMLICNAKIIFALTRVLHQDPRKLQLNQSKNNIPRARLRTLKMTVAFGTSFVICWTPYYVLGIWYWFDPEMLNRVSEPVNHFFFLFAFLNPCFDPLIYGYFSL
# How it was run: as §2
# [9] = In vitro metabolism: disappearance of parent compound in human liver microsomes; type: in vitro ADME; conditions: 5 uM compound, 0.5 mg/ml protein, 2 mM NADPH, 30 minutes 37° C.
# Description: as §1
# [10] = Solubility at pH2 and pH6; type: physicochemical
# [11] = female rat, 10 mg/kg as 5 mg/ml solution in 10% DMSO, 10% cremophor, 80% saline (footnote 5)
# [12] = female, po, 10 mg/kg, female rat, 10 mg/kg as 5 mg/ml solution in 10% DMSO, 10% cremophor, 80% saline (footnote 5), read-out: FR Cmax
# [13] = female, po, 10 mg/kg, female rat, 10 mg/kg as 5 mg/ml solution in 10% DMSO, 10% cremophor, 80% saline (footnote 5), read-out: FR T1/2 hr (converted)
# [14] = female, po, 10 mg/kg, female rat, 10 mg/kg as 5 mg/ml solution in 10% DMSO, 10% cremophor, 80% saline (footnote 5), read-out: FR Tmax hr
# [15] = pH 6, aqueous buffer, pH6, read-out: Solubility μg/ml pH6
Rat plasma % remain [1],Dog % rem. 30′ [2],Ki [3],Monkey % rem. [4],"FR Fp.o. [5, 11]","Cmax [5, 12]","half-life [5, 13]","Tmax [5, 14]",H S A column α [6],Fem. Rat (FR) % rem. 30′ [7],Male Rat (MR) % rem. 30′ [7],Ki [8],Human % rem. 30′ [9],"solubility [10, 15]","solubility ([10]; pH 2, simulated gastric fluid, pH2, read-out: Solubility μg/ml pH2)","MR Fp.o. ([5]; male rat, male rats dosed orally at 50 mg/kg)","Cmax ([5]; male, oral, 50 mg/kg, male rat, male rats dosed orally at 50 mg/kg, read-out: MR Cmax)","half-life ([5]; male, oral, 50 mg/kg, male rat, male rats dosed orally at 50 mg/kg, read-out: MR T1/2 hr (converted))","Tmax ([5]; male, oral, 50 mg/kg, male rat, male rats dosed orally at 50 mg/kg, read-out: MR Tmax hr)",Compound
–,29%,0.65 nM,42%,–,–,–,–,10,24%,23%,0.2 nM,45%,–,–,–,–,–,–,"COc1nc(NCCCNCCCN)nc(OC)c1NC(=O)c1ccc(Cc2cc3c(cc2C)C(C)(C)OC3(C)C)o1 [Example D17, N-[2-({3-[(3-Aminopropyl)amino]propyl}amino)-4,6-dimethoxypyrimidin-5-yl}-5-[(1,1,3,3,6-pentamethyl-1,3-dihydro-2-benzofuran-5-yl)methyl]-2-furamide]"
92%,70%,1.7 nM,0%,10%^5,200 nM,4.1 h,2 h,>30,92%,80%,0.9 nM,79%,–,–,–,–,–,–,"COc1nc(NCCCN2CCOCC2)nc(OC)c1NC(=O)c1ccc(Cc2cc3c(cc2Cl)C(C)(C)CCC3(C)C)o1 [Example G1, 5-(3-Chloro-5,5,8,8-tetramethyl-5,6,7,8-tetrahydro-naphthalen-2-ylmethyl)-furan-2-carboxylic acid[4,6-dimethoxy-2-(3-morpholin-4-yl-propylamino)-pyrimidin-5-yl]-amide]"

# Second part, the compound before the results:
Compound,Rat plasma % remain [1],Dog % rem. 30′ [2],Ki [3],Monkey % rem. [4],"FR Fp.o. [5, 11]","Cmax [5, 12]","half-life [5, 13]","Tmax [5, 14]",H S A column α [6],Fem. Rat (FR) % rem. 30′ [7],Male Rat (MR) % rem. 30′ [7],Ki [8],Human % rem. 30′ [9],"solubility [10, 15]","solubility ([10]; pH 2, simulated gastric fluid, pH2, read-out: Solubility μg/ml pH2)","MR Fp.o. ([5]; male rat, male rats dosed orally at 50 mg/kg)","Cmax ([5]; male, oral, 50 mg/kg, male rat, male rats dosed orally at 50 mg/kg, read-out: MR Cmax)","half-life ([5]; male, oral, 50 mg/kg, male rat, male rats dosed orally at 50 mg/kg, read-out: MR T1/2 hr (converted))","Tmax ([5]; male, oral, 50 mg/kg, male rat, male rats dosed orally at 50 mg/kg, read-out: MR Tmax hr)"
"COc1nc(NCCCN(C)C)nc(OC)c1NC(=O)c1ccc(Cc2cc3c(cc2C)C(C)(C)OC3(C)C)o1 [Example D9, N-(2-{[3-(Dimethylamino)propyl]amino}-4,6-dimethoxypyrimidin-5-yl)-5-[(1,1,3,3,6-pentamethyl-1,3-dihydro-2-benzofuran-5-yl)methyl]-2-furamide]",100%,100%,3 nM,44%,57%^5,800 nM,4.3 h,2 h,2,100%,80%,0.54 nM,89%,–,–,–,–,–,–
"COc1nc(Nc2ccccc2)nc(OC)c1NC(=O)c1ccc(Cc2cc3c(cc2C)C(C)(C)OC3(C)C)o1 [Example D1, 5-(1,1,3,3,6-Pentamethyl-1,3-dihydro-isobenzofuran-5-ylmethyl)-furan-2-carboxylic Acid (4,6-dimethoxy-2-phenylamino-pyrimidin-5-yl)-amide]",100%,52%,1.6 nM,22%,2%^5,100 nM,1.2 h,1 h,8,81%,20%,2.1 nM,82%,> 15 µg/mL,–,–,–,–,–
"COc1nc(N(C)C)nc(OC)c1NC(=O)c1ccc(Cc2cc3c(cc2C)C(C)(C)OC3(C)C)o1 [Example D8, N-[2-(Dimethylamino)-4,6-dimethoxypyrimidin-5-yl]-5-[(1,1,3,3,6-pentamethyl-1,3-dihydro-2-benzofuran-5-yl)methyl]-2-furamide]",100%,49%,6 nM,4%,–,–,–,–,3,84%,58%,31 nM,73%,–,–,–,–,–,–
COc1nc(NCCN2CCCC2)nc(OC)c1NC(=O)c1ccc(Cc2cc3c(cc2C)C(C)(C)OC3(C)C)o1 [Example D5],–,98%,1.5 nM,30%,–,–,–,–,2,95%,79%,0.84 nM,80%,> 30 µg/mL,> 30 µg/mL,34%,700 nM,7 h,4 h
"CCN(CC)CCNc1nc(OC)c(NC(=O)c2ccc(Cc3cc4c(cc3C)C(C)(C)OC4(C)C)o2)c(OC)n1 [Example D7, N-(2-{[2-(Diethylamino)ethyl]amino}-4,6-dimethoxypyrimidin-5-yl)-5-[(1,1,3,3,6-pentamethyl-1,3-dihydro-2-benzofuran-5-yl)methyl]-2-furamide]",100%,91%,6 nM,16%,30%^5,500 nM,4.1 h,2 h,2,95%,91%,2.2 nM,91%,–,–,–,–,–,–
